Structures can show the parent of a compound that is named as a salt.
Test: Phase I open-label single-dose crossover oral bioavailability / PK test of bedoradrine sulfate in healthy volunteers
Type: in vivo, human
Conditions: for clearance: CL; for Vd: Vss; for half-life: t½
Experimental: The test was an open-label, randomized, crossover, single dose test of 600 μg (0.6 mg) bedoradrine sulfate in liquid form administered orally and of 300 μg (0.3 mg) bedoradrine sulfate administered by i.v. infusion. All subjects were in an overnight fasting state. Four male and four female subjects were enrolled in the test and received two administration sequences: Day 1: n=4 received 15-minute intravenous infusion of bedoradrine sulfate (300 μg), the other 4 received an oral administration of bedoradrine sulfate (600 μg); Day 8: the 4 subjects administered i.v. MN-221 on Day 1, received oral bedoradrine sulfate and the 4 subjects administered orally with MN-221 on Day 1, receive i.v. bedoradrine sulfate. Subjects were domiciled in the clinical research unit (CRU) for two nights, beginning on Day minus one (−1), one day prior to dosing. First dosing occurred in the morning of Day 1. Subjects were discharged from the CRU approximately 24 hours after dosing (Day 2). There was a one-week washout between doses and subjects returned to the CRU (Day 7) and were domiciled for two days. On the morning of Day 8, subjects received the opposite dosing state (from Day 1) and subjects were then discharged from the CRU approximately 24 hours after dosing (Day 9). Blood samples for plasma selection and bioanalysis were collected on the dosing days before dosing (baseline) and at 0.25, 1, 1.5, 2, 3, 4, 6, 9, 12, and 24 hr after dosing. The bioanalytical results were obtained following HPLC/MS/MS procedures. The limit of quantitation (LLOQ) for these methods was 30.3 picogram (pg)/mL. Plasma MN-221 concentrations were tabulated separately by subject and sampling time and summarized by descriptive statistics. Descriptive statistics included the sample size, mean, standard deviation, median, range, and the coefficient of variation (CV %). Mean plasma concentration-time profiles were illustrated graphically. All plasma concentrations below the limit of quantitation (BLQ) values occurring at predose and up to the first measurable concentration may otherwise be imputed as 1 pg/mL in some analyses or LLOQ. Pharmacokinetic parameters were calculated from individual plasma concentrations-time data by model-independent analysis methods using WinNonlin™. The following parameters were calculated: Cmax (observed maximum plasma concentration), tmax (observed time of maximum plasma concentration), t1/2 (terminal half-life calculated as ln(2)/λz), AUC0-24 (area under the plasma concentration-time curve calculated using the linear trapezoidal rule from time zero to time 24 hr), vss (volume of distribution at steady state), Cl (clearance), and Oral F % (% oral bioavailability). All pharmacokinetic parameters were summarized using descriptive statistics that included the sample size, mean, standard deviation, median, range, and coefficient of variation. Select t-test or non-parametric statistical analysis was optional.

[1] = both sexes, human, in vivo, iv, 300 ug, mean
[2] = both sexes, human, in vivo, iv, 300 ug, median
[3] = both sexes, human, in vivo, iv, 300 ug, range
[4] = both sexes, human, in vivo, po, 600 ug, mean
[5] = both sexes, human, in vivo, po, 600 ug, median
[6] = both sexes, human, in vivo, po, 600 ug, range
[7] = both, human, in vivo, po, 600 ug
[8] = female, human, in vivo, po, 600 ug
[9] = human one, in vivo, iv, 300 ug, individual subject
[10] = human two, in vivo, iv, 300 ug, individual subject

## CN(C)C(=O)COc1ccc2c(c1)C[C@@H](NC[C@H](O)c1ccc(O)c(CCO)c1)CC2 [MN-221, bedoradrine sulfate]
0.6 mg oral vs 0.3 mg i.v.
  fold lower oral peak level than Cmax after i.v. dosing: > 30 fold
Both sexes, human, in vivo, iv, 0.3 mg
  AUC: ~13 ng·h/mL
Both sexes, human, in vivo, iv, 300 ug, AUC 0-24 h, mean
  AUC(0-t): 13.2 ng·h/mL
Both sexes, human, in vivo, iv, 300 ug, AUC 0-24 h, median
  AUC(0-t): 14.1 ng·h/mL
Both sexes, human, in vivo, iv, 300 ug, AUC 0-24 h, range
  AUC(0-t): 9.31 to 15.5 ng·h/mL
[1]
  clearance: 322 mL/min
  Tmax: 0.25 h
  Vd: 222 L
  half-life: 12.2 h
[2]
  clearance: 307 mL/min
  Tmax: 0.25 h
  Vd: 206 L
  half-life: 12.5 h
[3]
  clearance: 252 to 425 mL/min
  Vd: 149 to 325 L
  half-life: 7.4 to 14.6 h
Both sexes, human, in vivo, iv, 300 ug, Cmax, mean
  Cmax: 10.7 ng/mL
Both sexes, human, in vivo, iv, 300 ug, Cmax, median
  Cmax: 12.2 ng/mL
Both sexes, human, in vivo, iv, 300 ug, Cmax, range
  Cmax: 6.76 to 14.8 ng/mL
Both sexes, human, in vivo, po, 600 ug, AUC 0-24 h, mean
  AUC(0-t): 1.94 ng·h/mL
Both sexes, human, in vivo, po, 600 ug, AUC 0-24 h, median
  AUC(0-t): 1.85 ng·h/mL
Both sexes, human, in vivo, po, 600 ug, AUC 0-24 h, range
  AUC(0-t): 1.05 to 3.02 ng·h/mL
Both sexes, human, in vivo, po, 600 ug, Cmax, mean
  Cmax: 0.305 ng/mL
Both sexes, human, in vivo, po, 600 ug, Cmax, median
  Cmax: 0.301 ng/mL
Both sexes, human, in vivo, po, 600 ug, Cmax, range
  Cmax: 0.163 to 0.5 ng/mL
[4]
  Tmax: 1.2 h
  half-life: 16 h
[5]
  Tmax: 1.5 h
  half-life: 15.2 h
[6]
  Tmax: 0.25 to 2 h
  half-life: 11 to 23 h
both, human, in vivo
  fold lower AUC following oral dosing than at the i.v. dose: about 7 fold
both, human, in vivo, iv
  time at which plasma concentrations peaked: 0.25 h
both, human, in vivo, po
  time to reach maximal plasma concentrations: ≤ 2 h
[7]
  Tmax, median: approximately 1.5 hr
  t½, mean: 16.1 h
female, human, in vivo, iv, 300 ug, AUC0-24 h mean
  AUC(0-t): 14.9 ng·h/mL
female, human, in vivo, iv, 300 ug, AUC0-24 h range
  AUC(0-t): 13.9 to 15.5 ng·h/mL
female, human, in vivo, iv, 300 ug, Cmax mean
  Cmax: 13.1 ng/mL
female, human, in vivo, iv, 300 ug, Cmax range
  Cmax: 12.1 to 14.8 ng/mL
[8]
  oral F % mean: 4.9%
  oral F % range: 3.4-6.1%
female, human, in vivo, po, 600 ug, AUC0-24 h mean
  AUC(0-t): 1.45 ng·h/mL
female, human, in vivo, po, 600 ug, AUC0-24 h range
  AUC(0-t): 1.05 to 1.79 ng·h/mL
female, human, in vivo, po, 600 ug, Cmax mean
  Cmax: 0.221 ng/mL
female, human, in vivo, po, 600 ug, Cmax range
  Cmax: 0.163 to 0.299 ng/mL
Human one, in vivo, iv, 300 ug, AUC 0-24 h, individual subject
  AUC(0-t): 10.7 ng·h/mL
[9]
  clearance: 423 mL/min
  Tmax: 0.25 h
Human one, in vivo, iv, 300 ug, Cmax, individual subject
  Cmax: 6.76 ng/mL
Human one, in vivo, po, 600 ug, AUC 0-24 h, individual subject
  AUC(0-t): 2.14 ng·h/mL
Human one, in vivo, po, 600 ug, individual subject
  Tmax: 1.5 h
Human two, in vivo, iv, 300 ug, AUC 0-24 h, individual subject
  AUC(0-t): 15.5 ng·h/mL
[10]
  clearance: 252 mL/min
  Tmax: 0.25 h
  Vd: 225 L
  half-life: 14.6 h
Human two, in vivo, iv, 300 ug, Cmax, individual subject
  Cmax: 14.8 ng/mL
Human two, in vivo, po, 600 ug, AUC 0-24 h, individual subject
  AUC(0-t): 1.05 ng·h/mL
Human two, in vivo, po, 600 ug, Cmax, individual subject
  Cmax: 0.163 ng/mL
human, in vivo, po, 600 ug
  oral F % in men relative to women: two-fold greater
male, human, in vivo, iv, 300 ug, AUC0-24 h mean
  AUC(0-t): 11.5 ng·h/mL
male, human, in vivo, iv, 300 ug, AUC0-24 h range
  AUC(0-t): 9.31 to 14.3 ng·h/mL
male, human, in vivo, iv, 300 ug, Cmax mean
  Cmax: 8.42 ng/mL
male, human, in vivo, iv, 300 ug, Cmax range
  Cmax: 6.76 to 12.3 ng/mL
male, human, in vivo, po, 600 ug
  oral F % mean: 11.1%
male, human, in vivo, po, 600 ug, AUC0-24 h mean
  AUC(0-t): 2.44 ng·h/mL
male, human, in vivo, po, 600 ug, AUC0-24 h range
  AUC(0-t): 1.91 to 3.02 ng·h/mL
male, human, in vivo, po, 600 ug, Cmax mean
  Cmax: 0.389 ng/mL
male, human, in vivo, po, 600 ug, Cmax range
  Cmax: 0.303 to 0.5 ng/mL
